Assay results reported in US6686344B1, “Organic-arsonic compounds” (Paker Hughes Institute, priority 2003, dated 2004).

Legend:
NALM-6 (B-lineage ALL) = test: MTT cytotoxicity assay, NALM-6; format: cell-based; conditions: Homo sapiens, NALM-6 cells, 24-36 hours incubation
Experimental: (§1) The cytotoxicity of compound II was evaluated against two acute lymphoblastic leukemia (ALL) cell lines, NALM-6 (B-lineage ALL), and MOLT-3 (T-lineage ALL) using MTT (3-[4,5-dimethylthiazol-2-yl]-2,5-diphenyl tetrazolium bromide) assay (Boehringer Mannheim Corp., Indianapolis, Ind. The human leukemic cell lines (NALM-6, and MOLT-3) were obtained from the American Type Culture Collection and maintained as a continuous cell line in Dulbecco's modified Eagles's medium supplemented with 10% fetal bovine serum and antibiotics. Briefly, exponentially growing cells were seeded into a 96-well plate at a density of 2.5×10^4 cells/well and incubated for 36 hours at 37° C. prior to exposure to the compound. On the day of treatment, culture medium was carefully aspirated from the wells and replaced with fresh medium containing compound II at concentrations ranging from 0.1 to 250 μM. Triplicate wells were used for each treatment.
(§2) The cells were incubated with compound II for 24-36 hours at 37° C. in a humidified 5% CO2 atmosphere. […] The absorbance of each well was measured in a microplate reader (Labsystems) at 540 nm and a reference wavelength of 690 nm. […] The percent survival was calculated using the formula: [formula]
(§3) The IC50 values for cytotoxic activity were determined using Graph-pad Prism software, version 2.0 (San Diego, Calif., USA) and are shown below in Table 1.

MOLT-3 (T-lineage ALL) = test: MTT cytotoxicity assay, MOLT-3; format: cell-based; conditions: Homo sapiens, MOLT-3 cells, 24-36 hours incubation
Experimental: as §1, §2, §3

With `O=[As](O)(O)c1ccc(N=Nc2ccc(Nc3nc(C(Cl)(Cl)Cl)nc4ccccc34)cc2)cc1` [Compound II, 2-Trichloromethyl-4-4-[4′-(4″-phenylazo)phenylarsonic Acid]-aminoquinazoline] the IC50 (NALM-6 (B-lineage ALL)) was 1.1 ± 0.5 µM, the IC50 (MOLT-3 (T-lineage ALL)) was 2 ± 0.8 µM and the melting point was over 300 °C.
